Data as given in the NIST ThermoML archive (doi:10.1016/j.jct.2017.07.004).

Experiment: xn = mol fraction of the nth substance listed
Details: 100 kPa, Liquid; for viscosity: Concentric cylinders viscometry; for mass density: Vibrating tube method

CCC=O [propanal] + CCC(C)O
Details | mass density [kg/m3] | viscosity [mPa·s]
293.15 K, x1 = 0.0811 | 810.5 | 3.49
293.15 K, x1 = 0.16 | 813.1 | 3.29
293.15 K, x1 = 0.24 | 815.1 | 3.06
293.15 K, x1 = 0.35 | 817 | 2.72
293.15 K, x1 = 0.44 | 817.8 | 2.42
293.15 K, x1 = 0.56 | 817.7 | 2
293.15 K, x1 = 0.6499 | 816.7 | 1.67
293.15 K, x1 = 0.7401 | 814.7 | 1.34
293.15 K, x1 = 0.8501 | 810.8 | 0.92
293.15 K, x1 = 0.9401 | 806.5 | 0.58
293.15 K, x1 = 1 | 802.4 | 0.34
298.15 K, x1 = 0.0811 | 806 | 2.89
298.15 K, x1 = 0.16 | 808.4 | 2.73
298.15 K, x1 = 0.24 | 810.3 | 2.55
298.15 K, x1 = 0.35 | 811.8 | 2.27
298.15 K, x1 = 0.44 | 812.3 | 2.03
298.15 K, x1 = 0.56 | 811.8 | 1.68
298.15 K, x1 = 0.6499 | 810.5 | 1.41
298.15 K, x1 = 0.7401 | 808.4 | 1.14
298.15 K, x1 = 0.8501 | 804.5 | 0.8
298.15 K, x1 = 0.9401 | 800 | 0.52
298.15 K, x1 = 1 | 796.2 | 0.33
303.15 K, x1 = 0.0811 | 801.1 | 2.41
303.15 K, x1 = 0.16 | 803.2 | 2.27
303.15 K, x1 = 0.24 | 804.8 | 2.12
303.15 K, x1 = 0.35 | 806 | 1.89
303.15 K, x1 = 0.44 | 806.5 | 1.69
303.15 K, x1 = 0.56 | 805.7 | 1.41
303.15 K, x1 = 0.6499 | 804.3 | 1.19
303.15 K, x1 = 0.7401 | 802 | 0.97
303.15 K, x1 = 0.8501 | 798 | 0.69
303.15 K, x1 = 0.9401 | 794 | 0.46
303.15 K, x1 = 1 | 790.3 | 0.31
308.15 K, x1 = 0.0811 | 796.4 | 2.02
308.15 K, x1 = 0.16 | 798 | 1.9
308.15 K, x1 = 0.24 | 799.4 | 1.77
308.15 K, x1 = 0.35 | 800.3 | 1.58
308.15 K, x1 = 0.44 | 800.4 | 1.41
308.15 K, x1 = 0.56 | 799.5 | 1.18
308.15 K, x1 = 0.6499 | 798.1 | 1.01
308.15 K, x1 = 0.7401 | 795.9 | 0.82
308.15 K, x1 = 0.8501 | 791.8 | 0.6
308.15 K, x1 = 0.9401 | 788 | 0.42
308.15 K, x1 = 1 | 784.5 | 0.3
313.15 K, x1 = 0.0811 | 791.7 | 1.71
313.15 K, x1 = 0.16 | 793 | 1.61
313.15 K, x1 = 0.24 | 794 | 1.5
313.15 K, x1 = 0.35 | 794.6 | 1.34
313.15 K, x1 = 0.44 | 794.6 | 1.2
313.15 K, x1 = 0.56 | 793.5 | 1.01
313.15 K, x1 = 0.6499 | 792 | 0.86
313.15 K, x1 = 0.7401 | 789.8 | 0.72
313.15 K, x1 = 0.8501 | 786 | 0.53
313.15 K, x1 = 0.9401 | 782.4 | 0.38
313.15 K, x1 = 1 | 779 | 0.28
318.15 K, x1 = 0.0811 | 786.8 | 1.45
318.15 K, x1 = 0.16 | 787.9 | 1.36
318.15 K, x1 = 0.24 | 788.6 | 1.27
318.15 K, x1 = 0.35 | 789.1 | 1.13
318.15 K, x1 = 0.44 | 788.8 | 1.02
318.15 K, x1 = 0.56 | 787.6 | 0.86
318.15 K, x1 = 0.6499 | 786.1 | 0.74
318.15 K, x1 = 0.7401 | 783.8 | 0.62
318.15 K, x1 = 0.8501 | 780 | 0.47
318.15 K, x1 = 0.9401 | 776.5 | 0.35
318.15 K, x1 = 1 | 773.5 | 0.27
323.15 K, x1 = 0.0811 | 781.9 | 1.25
323.15 K, x1 = 0.16 | 782.6 | 1.17
323.15 K, x1 = 0.24 | 783.1 | 1.09
323.15 K, x1 = 0.35 | 783.2 | 0.97
323.15 K, x1 = 0.44 | 782.8 | 0.87
323.15 K, x1 = 0.56 | 781.5 | 0.74
323.15 K, x1 = 0.6499 | 779.8 | 0.64
323.15 K, x1 = 0.7401 | 777.7 | 0.54
323.15 K, x1 = 0.8501 | 774.3 | 0.42
323.15 K, x1 = 0.9401 | 770.9 | 0.32
323.15 K, x1 = 1 | 768.2 | 0.25

CCC=O [propanal] + CCCC(C)O
Details | mass density [kg/m3] | viscosity [mPa·s]
293.15 K, x1 = 0.0809 | 811 | 3.75
293.15 K, x1 = 0.1599 | 813.1 | 3.51
293.15 K, x1 = 0.2402 | 814.7 | 3.25
293.15 K, x1 = 0.35 | 816.4 | 2.87
293.15 K, x1 = 0.44 | 817 | 2.54
293.15 K, x1 = 0.5599 | 816.7 | 2.08
293.15 K, x1 = 0.65 | 815.8 | 1.73
293.15 K, x1 = 0.74 | 814.1 | 1.38
293.15 K, x1 = 0.85 | 810.6 | 0.94
293.15 K, x1 = 0.94 | 806.5 | 0.57
293.15 K, x1 = 1 | 802.4 | 0.34
298.15 K, x1 = 0.0809 | 806.6 | 3.11
298.15 K, x1 = 0.1599 | 808 | 2.91
298.15 K, x1 = 0.2402 | 809.2 | 2.71
298.15 K, x1 = 0.35 | 809.9 | 2.42
298.15 K, x1 = 0.44 | 810.2 | 2.15
298.15 K, x1 = 0.5599 | 809.5 | 1.78
298.15 K, x1 = 0.65 | 808.4 | 1.49
298.15 K, x1 = 0.74 | 806.6 | 1.2
298.15 K, x1 = 0.85 | 803.4 | 0.83
298.15 K, x1 = 0.94 | 799.8 | 0.52
298.15 K, x1 = 1 | 796.2 | 0.33
303.15 K, x1 = 0.0809 | 802.1 | 2.64
303.15 K, x1 = 0.1599 | 803.2 | 2.47
303.15 K, x1 = 0.2402 | 804 | 2.29
303.15 K, x1 = 0.35 | 804.5 | 2.04
303.15 K, x1 = 0.44 | 804.4 | 1.82
303.15 K, x1 = 0.5599 | 803.5 | 1.52
303.15 K, x1 = 0.65 | 802.2 | 1.29
303.15 K, x1 = 0.74 | 800.4 | 1.04
303.15 K, x1 = 0.85 | 797.1 | 0.73
303.15 K, x1 = 0.94 | 793.6 | 0.47
303.15 K, x1 = 1 | 790.3 | 0.31
308.15 K, x1 = 0.0809 | 797.7 | 2.24
308.15 K, x1 = 0.1599 | 798.5 | 2.11
308.15 K, x1 = 0.2402 | 798.9 | 1.96
308.15 K, x1 = 0.35 | 799 | 1.74
308.15 K, x1 = 0.44 | 798.7 | 1.55
308.15 K, x1 = 0.5599 | 797.5 | 1.29
308.15 K, x1 = 0.65 | 796.1 | 1.1
308.15 K, x1 = 0.74 | 794.2 | 0.89
308.15 K, x1 = 0.85 | 791 | 0.64
308.15 K, x1 = 0.94 | 787.6 | 0.43
308.15 K, x1 = 1 | 784.5 | 0.3
313.15 K, x1 = 0.0809 | 793.1 | 1.88
313.15 K, x1 = 0.1599 | 793.6 | 1.76
313.15 K, x1 = 0.2402 | 793.9 | 1.63
313.15 K, x1 = 0.35 | 793.8 | 1.45
313.15 K, x1 = 0.44 | 793.3 | 1.3
313.15 K, x1 = 0.5599 | 792 | 1.09
313.15 K, x1 = 0.65 | 790.5 | 0.92
313.15 K, x1 = 0.74 | 788.5 | 0.75
313.15 K, x1 = 0.85 | 785.3 | 0.56
313.15 K, x1 = 0.94 | 781.9 | 0.39
313.15 K, x1 = 1 | 779 | 0.28
318.15 K, x1 = 0.0809 | 788.6 | 1.55
318.15 K, x1 = 0.1599 | 788.9 | 1.45
318.15 K, x1 = 0.2402 | 789 | 1.34
318.15 K, x1 = 0.35 | 788.7 | 1.19
318.15 K, x1 = 0.44 | 788.1 | 1.07
318.15 K, x1 = 0.5599 | 786.5 | 0.9
318.15 K, x1 = 0.65 | 785 | 0.77
318.15 K, x1 = 0.74 | 782.9 | 0.64
318.15 K, x1 = 0.85 | 779.6 | 0.49
318.15 K, x1 = 0.94 | 776.2 | 0.35
318.15 K, x1 = 1 | 773.5 | 0.27
323.15 K, x1 = 0.0809 | 783.9 | 1.29
323.15 K, x1 = 0.1599 | 783.9 | 1.2
323.15 K, x1 = 0.2402 | 783.5 | 1.1
323.15 K, x1 = 0.35 | 782.7 | 0.97
323.15 K, x1 = 0.44 | 781.8 | 0.87
323.15 K, x1 = 0.5599 | 780.1 | 0.74
323.15 K, x1 = 0.65 | 778.4 | 0.64
323.15 K, x1 = 0.74 | 776.4 | 0.54
323.15 K, x1 = 0.85 | 773.4 | 0.42
323.15 K, x1 = 0.94 | 770.6 | 0.32
323.15 K, x1 = 1 | 768.2 | 0.25
